Measured values taken from ChEMBL document CHEMBL1123917, “Antiulcer agents. 3. Structure-activity-toxicity relationships of substituted imidazo[1,2-a]pyridines and a related imidazo[1,2-a]pyrazine” (1987).
Calls of active or inactive are those of the source. No cut-off for these calls is given here.

Legend:
Mus musculus [1] = test: Organ weight (stomach) was determined after administration of the compound
Canis familiaris [2] = test: Percent inhibition of Histamine -stimulated gastric acid secretion at the oral dosage of 4 mg/kg.; assay type: functional; conditions: Canis lupus familiaris, Stomach
Mus musculus [3] = species on record: Mus musculus; test: Histopathology of the stomach was determined as HGM (Hyperplasia of grandular mucosa)in the presence of the compound.
Canis familiaris [4] = test: Inhibition of gastric acid secretion stimulated by histamine in dog was determined by peroral administration of the compound; assay type: functional; conditions: Canis lupus familiaris, Stomach, po
Canis familiaris [5] = test: Percent inhibition of Histamine -stimulated gastric acid secretion at the oral dosage of 8 mg/kg.; assay type: functional; conditions: Canis lupus familiaris, Stomach
Rattus norvegicus [6] = test: Cytoprotective activity against ethyle alcohol induced ulcers was determined in rats by peroral administration of the compound; assay type: functional; conditions: po
Mus musculus [7] = species on record: Mus musculus; test: Organ weight ratio was determined for the compound :control
Mus musculus [8] = species on record: Mus musculus; test: Organ weight ratio was determined for the compound with respect to (8-Benzyloxy-2-methyl-imidazo[1,2-a]pyridin-3-yl) compound
Canis familiaris [9] = test: Inhibition of gastric acid secretion stimulated by histamine in dog was determined by peroral administration; value ranges from 3.2-50.6; assay type: functional; conditions: Canis lupus familiaris, Stomach, po
Mus musculus [10] = species on record: Mus musculus; test: Histopathology of the stomach was determined; N means normal variation in the presence of the compound.
Rattus norvegicus [11] = test: Cytoprotective activity against ethyle alcohol induced ulcers was determined in rats by peroral administration; IA means inactive; assay type: functional, organism-based
Canis familiaris [12] = test: Percent inhibition of Histamine stimulated gastric acid secretion at oral dosage of 8 mg/kg; assay type: functional; conditions: Canis lupus familiaris, Stomach
Canis familiaris [13] = test: Percent inhibition of Histamine stimulated gastric acid secretion at oral dosage of 4 mg/kg; assay type: functional; conditions: Canis lupus familiaris, Stomach
Canis familiaris [14] = test: Inhibition of gastric acid secretion stimulated by histamine in dog was determined by peroral administration confidence limits (p=0.05.); value ranges from 2.1-14.0; assay type: functional; conditions: Canis lupus familiaris, Stomach, po
Canis familiaris [15] = test: Inhibition of gastric acid secretion stimulated by histamine in dog was determined by peroral administration; IA means inactive; assay type: functional, organism-based; conditions: Canis lupus familiaris; Stomach
Canis familiaris [16] = test: Inhibition of gastric acid secretion stimulated by histamine in dog was determined by peroral administration; the regression was not significant; assay type: functional; conditions: Canis lupus familiaris, Stomach, po
Canis familiaris [17] = test: Inhibition of gastric acid secretion stimulated by histamine in dog was determined by peroral administration; IA means inactive oral dose of 8 mg/kg; assay type: functional, organism-based; set-up: dose 8 mg/kg; conditions: Canis lupus familiaris; Stomach
Canis familiaris [18] = test: Inhibition of gastric acid secretion stimulated by histamine in dog was determined by peroral administration; value ranges from 2.3-59.2; assay type: functional; conditions: Canis lupus familiaris, Stomach, po
Canis familiaris [19] = test: Inhibition of gastric acid secretion stimulated by histamine in dog was determined by peroral administration; value ranges from 0.6-3.9; assay type: functional; conditions: Canis lupus familiaris, Stomach, po
Mus musculus [20] = species on record: Mus musculus; test: Histopathology of the stomach was determined as HGM (Hyperplasia of grandular mucosa) in the presence of the compound.

| Compound | Organ weight (Mus musculus [1]) | Histopathology (Mus musculus [3]) | ED50 (Rattus norvegicus [6]) | Organ weight ratio (Mus musculus [7]) | Organ weight ratio (Mus musculus [8]) | Histopathology (Mus musculus [10]) | further results |
| --- | --- | --- | --- | --- | --- | --- | --- |
| Cc1nc2c(CCc3ccccc3)cccn2c1CC#N | 0.99 g | Hyperplasia of glandular mucosa | 7 mg/kg | 1.2 | 0.9 | – | inhibition in vivo at 4 mg/kg (Canis familiaris [2]): 3%; ED50 (Canis familiaris [4]): > 4.4 mg/kg; inhibition in vivo at 8 mg/kg (Canis familiaris [5]): 83% |
| Cc1ccn2c(CC#N)c(C)nc2c1OCc1ccccc1 | 0.9 g | – | 13 mg/kg | 1.1 | 0.8 | Within normal variation | ED50 (Canis familiaris [9]): 7.1 mg/kg |
| Cc1c(CC#N)nc2c(OCc3ccccc3)cccn12 | 0.98 g | Hyperplasia of glandular mucosa | – | 1.2 | 0.9 | – | ED50 (Rattus norvegicus [11]): inactive; ED50 (Canis familiaris [4]): > 4.4 mg/kg; inhibition in vivo at 8 mg/kg (Canis familiaris [12]): 91%; inhibition in vivo at 4 mg/kg (Canis familiaris [13]): 19% |
| Cc1nc2c(OCc3ccccc3)cccn2c1CC#N | 1.13 g | Hyperplasia of glandular mucosa | 3 mg/kg | 1.4 | 1 | – | ED50 (Canis familiaris [14]): 4.4 mg/kg |
| Cc1nc2c(O)cccn2c1CC#N | 0.8 g | – | – | 1 | 0.7 | Within normal variation | ED50 (Canis familiaris [15]): inactive; ED50 (Rattus norvegicus [11]): inactive |
| Cc1nc2c(OCc3ccccc3)cccn2c1N | 1.09 g | Hyperplasia of glandular mucosa | 6 mg/kg | 1.2 | 1 | – | ED50 (Canis familiaris [16]): 2 mg/kg |
| Cc1nc2ccc(CCc3ccccc3)cn2c1CC#N | 0.81 g | – | 2.7 mg/kg | 1 | 0.7 | Within normal variation | ED50 (Canis familiaris [17]): inactive |
| Cc1nc2c(NCc3ccccc3)cccn2c1CC#N | 0.9 g | Hyperplasia of glandular mucosa | 2 mg/kg | 1.2 | 0.8 | – | ED50 (Canis familiaris [4]): 6.7 mg/kg |
| Cc1nc2c(CCc3ccccc3)cccn2c1N | 0.88 g | – | 9 mg/kg | 1.1 | 0.8 | Within normal variation | ED50 (Canis familiaris [18]): 6.8 mg/kg |
| Cc1nc2c(OCc3ccccc3)nccn2c1N | 0.86 g | – | 5 mg/kg | 1.1 | 0.8 | Within normal variation | ED50 (Canis familiaris [19]): 1.4 mg/kg |
| Cc1nc2c(OCc3ccsc3)cccn2c1CC#N | 1.12 g | – | 2 mg/kg | 1.5 | 1 | – | ED50 (Canis familiaris [4]): 2.7 mg/kg; Histopathology (Mus musculus [20]): Hyperplasia of glandular mucosa |
| Cc1nc2ccc(CCc3ccccc3)cn2c1N | 0.81 g | – | 5.7 mg/kg | 1 | 0.7 | Within normal variation | ED50 (Canis familiaris [15]): inactive |
| Cc1cn2cccc(OCc3ccccc3)c2n1 | 0.84 g | – | 4 mg/kg | 1 | 0.7 | Within normal variation | ED50 (Canis familiaris [15]): inactive |
| Cc1cn2c(OCc3ccccc3)cccc2n1 | 0.76 g | – | 1 mg/kg | 0.9 | 0.7 | Within normal variation | ED50 (Canis familiaris [15]): inactive |
